Each compound was assayed on A. baumannii strain ATCC19606. Settings: ATCC19606, 20 h.
Format: cell-based, Acinetobacter baumannii
Experimental: The in vitro antimicrobial activity of the compounds was determined through microbroth minimum inhibitory concentration (MIC) methodology performed according to the Clinical and Laboratory Standard Institute guidelines (CLSI-M07-A9 January 2012. Methods for Dilution Antimicrobial Susceptibility Tests for Bacteria That Grow Aerobically; Approved Standard Ninth Edition, Clinical and Laboratory Standards Institute, Wayne/PA, US and the CLSI-M100-S24 January 2014. Performance Standards for Antimicrobial Susceptibility Testing; Approved Standard—Fourth Informational Supplement, Clinical and Laboratory Standards Institute, Wayne/PA, US).
The compound stock solution was freshly prepared at 10× the required top concentration for the MIC determination, i.e. at 1280 mg/L, by reconstitution of the dry compound in 50:50 water:DMSO.
Polystyrene non-treated 96 wells microtiter plates were used for preparing panel containing compound serial twofold diluted at two times the final testing concentration (e.g. range from 64 to 0.06 μg/ml) in cation adjusted Mueller Hinton broth medium (CAMHB).
Inoculum was prepared by the “direct colony suspension method”. Colonies of A. baumannii ATCC19606 or clinical isolates were suspended in saline solution and adjusted to 0.5 McFarland, diluted 100 times in CAMHB broth and 50 μl added to each well (final concentration of cells˜5×10^(5) CFU/ml and Final volume/well of 100 μl). Microtiter plates were sealed and incubated at 35±2° C.
MICs values were read after 20 hours of incubation and recorded as the lowest concentration of the antimicrobial that inhibits more or equal to 80% of growth of the organism as detected by the unaided eye and using a microtiter plate optical density reader (OD 600 nm).
Table 1 provides the minimum inhibitory concentration (MIC) in microgram per milliliter of the compounds of present invention obtained against the A. baumannii strain ATCC19606.
CN1C(=O)[C@H](CCCCN)NC(=O)[C@H](CCCN)NCc2cccc(c2)-c2ccccc2CNC(=O)[C@@H]1Cc1c[nH]c2ccccc12 [Example 1, (11S,14S,17S)-14-(4-Amino-butyl)-17-(3-amino-propyl)-11-(1H-indol-3-ylmethyl)-12-methyl-9,12,15,18-tetraaza-tricyclo[18.3.1.0*2,7]tetracosa-1(24),2(7),3,5,20,22-hexaene-10,13,16-trione] was tested, and the “ATCC19606 MIC (minimum inhibitory concentration)” value was 32 µg/mL. For CN1C(=O)[C@H](CCCCN)NC(=O)[C@H](CCCN)NCc2cccc(c2)-c2c(cccc2C(F)(F)F)CNC(=O)[C@@H]1Cc1c[nH]c2ccccc12 [Example 2, (11S,14S,17S)-14-(4-Amino-butyl)-17-(3-amino-propyl)-11-(1H-indol-3-ylmethyl)-12-methyl-3-trifluoromethyl-9,12,15,18-tetraaza-tricyclo[18.3.1.0*2,7]tetracosa-1(24),2(7),3,5,20,22-hexaene-10,13,16-trione], the “ATCC19606 MIC (minimum inhibitory concentration)” value was 2 µg/mL. With CN1C(=O)[C@H](CCCCN)NC(=O)[C@H](CCCN)NCc2cccc(c2)-c2ccc(C(F)(F)F)cc2CNC(=O)[C@@H]1Cc1c[nH]c2ccccc12 [Example 3, (11S,14S,17S)-14-(4-Amino-butyl)-17-(3-amino-propyl)-11-(1H-indol-3-ylmethyl)-12-methyl-5-trifluoromethyl-9,12,15,18-tetraaza-tricyclo[18.3.1.0*2,7]tetracosa-1(24),2(7),3,5,20,22-hexaene-10,13,16-trione] the “ATCC19606 MIC (minimum inhibitory concentration)” value was 0.5 µg/mL. With Cc1cccc2c1-c1cccc(c1)CN[C@@H](CCCN)C(=O)N[C@@H](CCCCN)C(=O)N(C)[C@@H](Cc1c[nH]c3ccccc13)C(=O)NC2 [Example 4, (11S,14S,17S)-14-(4-Amino-butyl)-17-(3-amino-propyl)-11-(1H-indol-3-ylmethyl)-3,12-dimethyl-9,12,15,18-tetraaza-tricyclo[18.3.1.0*2,7]tetracosa-1(23),2(7),3,5,20(24),21-hexaene-10,13,16-trione] the “ATCC19606 MIC (minimum inhibitory concentration)” value was 32 µg/mL. For CN1C(=O)[C@H](CCCCN)NC(=O)[C@H](CCCN)NCc2cccc(c2)-c2ccc(Cl)cc2CNC(=O)[C@@H]1Cc1c[nH]c2ccccc12 [Example 5, (11S,14S,17S)-14-(4-Amino-butyl)-17-(3-amino-propyl)-5-chloro-11-(1H-indol-3-ylmethyl)-12-methyl-9,12,15,18-tetraaza-tricyclo[18.3.1.0*2,7]tetracosa-1(23),2(7),3,5,20(24),21-hexaene-10,13,16-trione], the “ATCC19606 MIC (minimum inhibitory concentration)” value was 4 µg/mL. In the case of CN1C(=O)[C@H](CCCCN)NC(=O)[C@H](CCCN)NCc2cccc(c2)-c2cccc(Cl)c2CNC(=O)[C@@H]1Cc1c[nH]c2ccccc12 [Example 6, (11S,14S,17S)-14-(4-Amino-butyl)-17-(3-amino-propyl)-6-chloro-11-(1H-indol-3-ylmethyl)-12-methyl-9,12,15,18-tetraaza-tricyclo[18.3.1.0*2,7]tetracosa-1(23),2(7),3,5,20(24),21-hexaene-10,13,16-trione], the “ATCC19606 MIC (minimum inhibitory concentration)” value is reported as 32 µg/mL. For Cc1ccc2c(c1)CNC(=O)[C@H](Cc1c[nH]c3ccccc13)N(C)C(=O)[C@H](CCCCN)NC(=O)[C@H](CCCN)NCc1cccc-2c1 [Example 7, (11S,14S,17S)-14-(4-Amino-butyl)-17-(3-amino-propyl)-11-(1H-indol-3-ylmethyl)-5,12-dimethyl-9,12,15,18-tetraaza-tricyclo[18.3.1.0*2,7]tetracosa-1(23),2(7),3,5,20(24),21-hexaene-10,13,16-trione], the “ATCC19606 MIC (minimum inhibitory concentration)” value was 1 µg/mL. CN1C(=O)[C@H](CCCCN)NC(=O)[C@H](CCCN)NCc2cccc(c2)-c2cc(C(F)(F)F)ccc2CNC(=O)[C@@H]1Cc1c[nH]c2ccccc12 [Example 8, (11S,14S,17S)-14-(4-Amino-butyl)-17-(3-amino-propyl)-11-(1H-indol-3-ylmethyl)-12-methyl-4-trifluoromethyl-9,12,15,18-tetraaza-tricyclo[18.3.1.0*2,7]tetracosa-1(24),2(7),3,5,20,22-hexaene-10,13,16-trione] was tested, and the “ATCC19606 MIC (minimum inhibitory concentration)” value was 4 µg/mL. In the case of COc1ccc2c(c1)CNC(=O)[C@H](Cc1c[nH]c3ccccc13)N(C)C(=O)[C@H](CCCCN)NC(=O)[C@H](CCCN)NCc1cccc-2c1 [Example 9, (11S,14S,17S)-14-(4-Amino-butyl)-17-(3-amino-propyl)-11-(1H-indol-3-ylmethyl)-5-methoxy-12-methyl-9,12,15,18-tetraaza-tricyclo[18.3.1.0*2,7]tetracosa-1(23),2(7),3,5,20(24),21-hexaene-10,13,16-trione], the “ATCC19606 MIC (minimum inhibitory concentration)” value is reported as 4 µg/mL. CN1C(=O)[C@H](CCCCN)NC(=O)[C@H](CCCN)NCc2cccc(c2F)-c2ccccc2CNC(=O)[C@@H]1Cc1c[nH]c2ccccc12 [Example 10, (11S,14S,17S)-14-(4-Amino-butyl)-17-(3-amino-propyl)-24-fluoro-11-(1H-indol-3-ylmethyl)-12-methyl-9,12,15,18-tetraaza-tricyclo[18.3.1.0*2,7]tetracosa-1(23),2(7),3,5,20(24),21-hexaene-10,13,16-trione] was tested, and the “ATCC19606 MIC (minimum inhibitory concentration)” value was 16 µg/mL. In the case of CN1C(=O)[C@H](CCCCN)NC(=O)[C@H](CCCN)NCc2ccnc(c2)-c2ccc(Cl)cc2CNC(=O)[C@@H]1Cc1c[nH]c2ccccc12 [Example 11, (11S,14S,17S)-14-(4-Amino-butyl)-17-(3-amino-propyl)-5-chloro-11-(1H-indol-3-ylmethyl)-12-methyl-9,12,15,18,23-pentaaza-tricyclo[18.3.1.0*2,7]tetracosa-1(23),2(7),3,5,20(24),21-hexaene-10,13,16-trione], the “ATCC19606 MIC (minimum inhibitory concentration)” value is reported as 32 µg/mL.
